According to ChEMBL document CHEMBL3867466, “Synthesis and biological evaluation of novel 2,4,5-triarylimidazole-1,2,3-triazole derivatives via click chemistry as α-glucosidase inhibitors” (Bioorg Med Chem Lett, 2016):

What was measured:
Alpha-glucosidase MAL12 [1] = biological target: T1, Alpha-glucosidase MAL12 (Saccharomyces cerevisiae S288c, UniProt P53341); test: Inhibition of bakers yeast alpha-glucosidase using p-nitrophenyl-alpha-D-glucopyranoside as substrate incubated for 15 mins followed by substrate addition measured after 30 mins by spectrophotometric analysis
T1 sequence (P53341 whole entry): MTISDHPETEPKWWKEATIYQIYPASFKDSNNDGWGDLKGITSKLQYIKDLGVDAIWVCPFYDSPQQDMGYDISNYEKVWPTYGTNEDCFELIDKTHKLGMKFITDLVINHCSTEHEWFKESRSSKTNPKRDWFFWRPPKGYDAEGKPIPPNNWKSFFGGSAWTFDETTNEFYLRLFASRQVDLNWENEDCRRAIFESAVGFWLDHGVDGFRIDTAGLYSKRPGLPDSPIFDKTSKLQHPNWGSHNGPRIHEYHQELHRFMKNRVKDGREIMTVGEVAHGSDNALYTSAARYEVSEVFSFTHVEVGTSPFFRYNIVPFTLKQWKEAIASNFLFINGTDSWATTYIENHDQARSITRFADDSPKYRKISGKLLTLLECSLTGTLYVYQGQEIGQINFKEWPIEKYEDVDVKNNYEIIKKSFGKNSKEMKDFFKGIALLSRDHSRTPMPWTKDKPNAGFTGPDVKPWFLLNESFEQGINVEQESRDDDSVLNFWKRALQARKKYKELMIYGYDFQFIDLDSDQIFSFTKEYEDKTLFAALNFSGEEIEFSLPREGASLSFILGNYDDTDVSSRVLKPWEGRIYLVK

Alpha-glucosidase MAL12 [2] = biological target: T1, Alpha-glucosidase MAL12; test: Non-competitive inhibition of bakers yeast alpha-glucosidase using p-nitrophenyl-alpha-D-glucopyranoside as substrate by Lineweaver-Burk plot analysis

CCOc1ccccc1NC(=O)Cn1cc(Cn2c(-c3cccc(Br)c3)nc(-c3ccccc3)c2-c2ccccc2)nn1
IC50 (Alpha-glucosidase MAL12 [1]): 15.2 µM | Ki (Alpha-glucosidase MAL12 [2]): 14.8 µM

Cc1ccc(NC(=O)Cn2cc(Cn3c(-c4cccc(F)c4)nc(-c4ccccc4)c3-c3ccccc3)nn2)c(C)c1
IC50 (Alpha-glucosidase MAL12 [1]): 30.1 µM

O=C(Cn1cc(Cn2c(-c3ccc(F)cc3)nc(-c3ccccc3)c2-c2ccccc2)nn1)Nc1ccc(Cl)cc1Cl
IC50 (Alpha-glucosidase MAL12 [1]): 22.8 µM

COc1ccc(NC(=O)Cn2cc(Cn3c(-c4cccc(Cl)c4)nc(-c4ccccc4)c3-c3ccccc3)nn2)cc1
IC50 (Alpha-glucosidase MAL12 [1]): 48.2 µM

CCOc1ccc(NC(=O)Cn2cc(Cn3c(-c4ccc(C(=O)OC)cc4)nc(-c4ccccc4)c3-c3ccccc3)nn2)cc1
IC50 (Alpha-glucosidase MAL12 [1]): 17 µM

CCOc1ccc(NC(=O)Cn2cc(Cn3c(-c4cccc(Cl)c4)nc(-c4ccccc4)c3-c3ccccc3)nn2)cc1
IC50 (Alpha-glucosidase MAL12 [1]): 44.2 µM

COc1ccccc1-c1nc(-c2ccccc2)c(-c2ccccc2)n1Cc1cn(CC(=O)Nc2ccc(C)cc2)nn1
IC50 (Alpha-glucosidase MAL12 [1]): 27 µM

CCOc1ccccc1NC(=O)Cn1cc(Cn2c(-c3ccccc3F)nc(-c3ccccc3)c2-c2ccccc2)nn1
IC50 (Alpha-glucosidase MAL12 [1]): 36.9 µM

COc1ccc(NC(=O)Cn2cc(Cn3c(-c4cccs4)nc(-c4ccccc4)c3-c3ccccc3)nn2)cc1
IC50 (Alpha-glucosidase MAL12 [1]): 24.2 µM

O=C(Cn1cc(Cn2c(-c3ccc(Br)cc3)nc(-c3ccccc3)c2-c2ccccc2)nn1)Nc1ccc(F)cc1
IC50 (Alpha-glucosidase MAL12 [1]): 22 µM

COc1cc(-c2nc(-c3ccccc3)c(-c3ccccc3)n2Cc2cn(CC(=O)Nc3cccc(C)c3)nn2)cc(OC)c1OC
IC50 (Alpha-glucosidase MAL12 [1]): 20.3 µM

Cc1ccccc1NC(=O)Cn1cc(Cn2c(-c3cccc(F)c3)nc(-c3ccccc3)c2-c2ccccc2)nn1
IC50 (Alpha-glucosidase MAL12 [1]): 32.1 µM

CCOc1ccc(NC(=O)Cn2cc(Cn3c(-c4cccc(Br)c4)nc(-c4ccccc4)c3-c3ccccc3)nn2)cc1
IC50 (Alpha-glucosidase MAL12 [1]): 19.6 µM

Cc1ccccc1NC(=O)Cn1cc(Cn2c(-c3ccc(Br)cc3)nc(-c3ccccc3)c2-c2ccccc2)nn1
IC50 (Alpha-glucosidase MAL12 [1]): 29.3 µM

COc1cc(-c2nc(-c3ccccc3)c(-c3ccccc3)n2Cc2cn(CC(=O)Nc3ccc(Cl)cc3)nn2)cc(OC)c1OC
IC50 (Alpha-glucosidase MAL12 [1]): 29.2 µM

COc1ccc(-c2nc(-c3ccccc3)c(-c3ccccc3)n2Cc2cn(CC(=O)Nc3ccc(Cl)cc3Cl)nn2)cc1OC
IC50 (Alpha-glucosidase MAL12 [1]): 21.6 µM

COC(=O)c1ccc(-c2nc(-c3ccccc3)c(-c3ccccc3)n2Cc2cn(CC(=O)Nc3cc(Cl)ccc3Cl)nn2)cc1
IC50 (Alpha-glucosidase MAL12 [1]): 20.2 µM

Cc1ccc(NC(=O)Cn2cc(Cn3c(-c4cccc(Cl)c4)nc(-c4ccccc4)c3-c3ccccc3)nn2)c(C)c1
IC50 (Alpha-glucosidase MAL12 [1]): 38.5 µM
